Where a name gives a salt, the structure may show the parent alone. Read-outs that look alike come from different tables or passages of the source.
How the values were obtained:
[1] = test system: iCell cardiomyocytes (human iPSC-derived cardiomyocytes); assay: High-content imaging of cytotoxicity and mitochondrial integrity in iPSC-CMs; format: cell-based; conditions: Homo sapiens; for viability at 0.01 µM / activity at 0.01 µM / viability at 0.1 µM / activity at 0.1 µM / viability at 1 µM / activity at 1 µM / viability at 10 µM / activity at 10 µM / viability at 100 µM / activity at 100 µM: Cardiomyocyte, 0.00 µM = 100.00; for viability at 0.1 µM / activity at 0.1 µM: 0.10 µM; for minimal effective concentration: iPSC-CM
Outline: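 Readouts from high-content images were normalized to vehicle controls containing 0.5% vol/vol DMSO. They were fit to a four-parameter logistic model in R. Points of departure were set using a cutoff of one standard deviation across vehicle control means. Where no concentration–response was seen, the top tested concentration of 100μM was assigned as the no observable adverse effect level.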

HUVECs = assay: High-content imaging cytotoxicity in HUVECs, 24 h; format: cell-based, human; conditions: Homo sapiens, HUVEC, 24 h, HUVECs; for viability at 0.01 µM / activity at 0.01 µM / viability at 0.1 µM / activity at 0.1 µM / viability at 1 µM / activity at 1 µM / viability at 10 µM / activity at 10 µM / viability at 100 µM / activity at 100 µM: 0.00 µM = 100.00; for viability at 0.1 µM / activity at 0.1 µM: 0.10 µM; for minimal effective concentration: top concentration 100.00 µM
Outline: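 Point-of-departure values derive from four-parameter logistic fits of vehicle-normalized imaging phenotypes (Hoechst 33342, MitoTracker Orange, calcein AM). The fits follow 24 h exposure of HUVEC monolayers at 37°C and 5% CO2, with a top tested concentration of 100μM.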

[2] = 24 hr, read-out: huvec.cyto.24hr
[3] = 24 hr, read-out: huvec.mito.24hr
[4] = 24 hr, read-out: huvec.mitoint.24hr
[5] = 24 hr, read-out: huvec.nma.24hr
[6] = 24 hrs, read-out: huvec.tc.24hrs

Compound: O=S(=O)(O)Oc1cc(Cl)ccc1-c1ccccc1 [2-yl PCB 3 sulfate]
- viability at 0.01 µM ([1]; 1.5 h, read-out: cm.cam.90min): 88.1%
- activity at 0.01 µM ([1]; 1.5 h, read-out: cm.mii.90min): 116%
- activity at 0.01 µM ([1]; 1.5 h, read-out: cm.mito.90min): 87.6%
- viability at 0.01 µM ([1]; 1.5 h, read-out: cm.tc.90min): 88.3%
- viability at 0.1 µM ([1]; 1.5 h, read-out: cm.cam.90min): 98.3%
- activity at 0.1 µM ([1]; 1.5 h, read-out: cm.mii.90min): 105%
- activity at 0.1 µM ([1]; 1.5 h, read-out: cm.mito.90min): 98.4%
- viability at 0.1 µM ([1]; 1.5 h, read-out: cm.tc.90min): 98.4%
- viability at 1 µM ([1]; 1.5 h, read-out: cm.cam.90min): 105%
- activity at 1 µM ([1]; 1.5 h, read-out: cm.mii.90min): 88.6%
- activity at 1 µM ([1]; 1.5 h, read-out: cm.mito.90min): 105%
- viability at 1 µM ([1]; 1.5 h, read-out: cm.tc.90min): 105%
- viability at 10 µM ([1]; 1.5 h, read-out: cm.cam.90min): 100%
- activity at 10 µM ([1]; 1.5 h, read-out: cm.mii.90min): 96.5%
- activity at 10 µM ([1]; 1.5 h, read-out: cm.mito.90min): 101%
- viability at 10 µM ([1]; 1.5 h, read-out: cm.tc.90min): 101%
- viability at 100 µM ([1]; 1.5 h, read-out: cm.cam.90min): 104%
- activity at 100 µM ([1]; 1.5 h, read-out: cm.mii.90min): 81%
- activity at 100 µM ([1]; 1.5 h, read-out: cm.mito.90min): 105%
- viability at 100 µM ([1]; 1.5 h, read-out: cm.tc.90min): 105%
- viability at 0.01 µM ([1]; 24 h, read-out: cm.cam.24hrs): 99.2%
- activity at 0.01 µM ([1]; 24 h, read-out: cm.mii.24hrs): 94.5%
- activity at 0.01 µM ([1]; 24 h, read-out: cm.mito.24hrs): 100%
- viability at 0.01 µM ([1]; 24 h, read-out: cm.tc.24hrs): 101%
- viability at 0.1 µM ([1]; 24 h, read-out: cm.cam.24hrs): 101%
- activity at 0.1 µM ([1]; 24 h, read-out: cm.mii.24hrs): 102%
- activity at 0.1 µM ([1]; 24 h, read-out: cm.mito.24hrs): 101%
- viability at 0.1 µM ([1]; 24 h, read-out: cm.tc.24hrs): 101%
- viability at 1 µM ([1]; 24 h, read-out: cm.cam.24hrs): 101%
- activity at 1 µM ([1]; 24 h, read-out: cm.mii.24hrs): 102%
- activity at 1 µM ([1]; 24 h, read-out: cm.mito.24hrs): 103%
- viability at 1 µM ([1]; 24 h, read-out: cm.tc.24hrs): 101%
- viability at 10 µM ([1]; 24 h, read-out: cm.cam.24hrs): 102%
- activity at 10 µM ([1]; 24 h, read-out: cm.mii.24hrs): 85.7%
- activity at 10 µM ([1]; 24 h, read-out: cm.mito.24hrs): 102%
- viability at 10 µM ([1]; 24 h, read-out: cm.tc.24hrs): 102%
- viability at 100 µM ([1]; 24 h, read-out: cm.cam.24hrs): 98.3%
- activity at 100 µM ([1]; 24 h, read-out: cm.mii.24hrs): 91.6%
- activity at 100 µM ([1]; 24 h, read-out: cm.mito.24hrs): 99.6%
- viability at 100 µM ([1]; 24 h, read-out: cm.tc.24hrs): 98.5%
- minimal effective concentration ([1]; 1.5 h, read-out: cm.cam.90min POD): 100 µM
- minimal effective concentration ([1]; 1.5 h, read-out: cm.mii.90min POD): 7.39 µM
- minimal effective concentration ([1]; 1.5 h, read-out: cm.mito.90min POD): 100 µM
- minimal effective concentration ([1]; 1.5 h, read-out: cm.tc.90min POD): 100 µM
- minimal effective concentration ([1]; 24 h, read-out: cm.cam.24hrs POD): 100 µM
- minimal effective concentration ([1]; 24 h, read-out: cm.mii.24hrs POD): 100 µM
- minimal effective concentration ([1]; 24 h, read-out: cm.mito.24hrs POD): 100 µM
- minimal effective concentration ([1]; 24 h, read-out: cm.tc.24hrs POD): 100 µM
- viability at 0.01 µM (HUVECs; [2]): 95%
- activity at 0.01 µM (HUVECs; [3]): 93.7%
- activity at 0.01 µM (HUVECs; [4]): 96.9%
- activity at 0.01 µM (HUVECs; [5]): 100%
- viability at 0.1 µM (HUVECs; [2]): 105%
- activity at 0.1 µM (HUVECs; [3]): 105%
- activity at 0.1 µM (HUVECs; [4]): 103%
- activity at 0.1 µM (HUVECs; [5]): 95.3%
- viability at 1 µM (HUVECs; [2]): 95%
- activity at 1 µM (HUVECs; [3]): 94.6%
- activity at 1 µM (HUVECs; [4]): 92.6%
- activity at 1 µM (HUVECs; [5]): 95.4%
- viability at 10 µM (HUVECs; [2]): 83.5%
- activity at 10 µM (HUVECs; [3]): 83.3%
- activity at 10 µM (HUVECs; [4]): 97.9%
- activity at 10 µM (HUVECs; [5]): 97.9%
- viability at 100 µM (HUVECs; [2]): 93%
- activity at 100 µM (HUVECs; [3]): 92.1%
- activity at 100 µM (HUVECs; [4]): 93.3%
- activity at 100 µM (HUVECs; [5]): 96%
- minimal effective concentration (HUVECs; 24 hr, read-out: huvec.cyto.24hr POD): 100 µM
- minimal effective concentration (HUVECs; 24 hr, read-out: huvec.mito.24hr POD): 100 µM
- minimal effective concentration (HUVECs; 24 hr, read-out: huvec.mitoint.24hr POD): 100 µM
- minimal effective concentration (HUVECs; 24 hr, read-out: huvec.nma.24hr POD): 100 µM
- viability at 0.01 µM (HUVECs; [6]): 95%
- viability at 0.1 µM (HUVECs; [6]): 105%
- viability at 1 µM (HUVECs; [6]): 95%
- viability at 10 µM (HUVECs; [6]): 83.5%
- viability at 100 µM (HUVECs; [6]): 93%
- minimal effective concentration (HUVECs; 24 hrs, read-out: huvec.tc.24hrs POD): 100 µM

Reference: article PMC7377239, “Cardiovascular Effects of Polychlorinated Biphenyls and Their Major Metabolites” (Environmental Health Perspectives, 2020)
